Data on 15 compounds can be found in ChEMBL document CHEMBL5614428, “Synthesis and antibacterial activities of heterocyclic ring-fused 20(S)-protopanaxadiol derivatives” (Bioorg Med Chem, 2024).

Common to all, as to format: functional
Assay [1] deals with Staphylococcus aureus. The assay is described as follows: Antibacterial activity against Staphylococcus aureus Newman assessed as inhibition of bacterial growth incubated for 18 hrs by two fold serial dilution assay.
The subject of assay [2] is Staphylococcus aureus. Nature of the assay: Antibacterial activity against methicillin-resistant Staphylococcus aureus USA300 assessed as inhibition of bacterial growth incubated for 18 hrs by two fold serial dilution assay.
Assay [3] relates to Staphylococcus aureus. Nature of the assay: Antibacterial activity against methicillin-resistant Staphylococcus aureus NRS-271 assessed as inhibition of bacterial growth incubated for 18 hrs by two fold serial dilution assay.
For assay [4], the system named is Staphylococcus aureus. Nature of the assay: Antibacterial activity against methicillin-resistant Staphylococcus aureus XJ036 assessed as inhibition of bacterial growth incubated for 18 hrs by two fold serial dilution assay.
The test system of assay [5] is Staphylococcus aureus. The assay is described as follows: Antibacterial activity against methicillin-resistant Staphylococcus aureus NRS-108 assessed as inhibition of bacterial growth incubated for 18 hrs by two fold serial dilution assay.
Assay [6] concerns Staphylococcus aureus. Nature of the assay: Antibacterial activity against methicillin-resistant Staphylococcus aureus NRS-70 assessed as inhibition of bacterial growth incubated for 18 hrs by two fold serial dilution assay.
The subject of assay [7] is Staphylococcus aureus. The assay is described as follows: Antibacterial activity against methicillin-resistant Staphylococcus aureus NRS-1 assessed as inhibition of bacterial growth incubated for 18 hrs by two fold serial dilution assay.
Assay [8] has as its system Staphylococcus aureus. The assay is described as follows: Antibacterial activity against methicillin-resistant Staphylococcus aureus XJ017 assessed as inhibition of bacterial growth incubated for 18 hrs by two fold serial dilution assay.
The subject of assay [9] is Staphylococcus aureus. The assay is described as follows: Antibacterial activity against methicillin-resistant Staphylococcus aureus NRS-100 assessed as inhibition of bacterial growth incubated for 18 hrs by two fold serial dilution assay.

Values after ≈ are worked out from the molar mass of the structure shown.

As to `CC1(C)c2ncncc2C[C@]2(C)[C@H]3C[C@@H](O)[C@@H]4[C@@H]([C@@](C)(O)CCCO)CC[C@@]4(C)[C@]3(C)CC[C@@H]12`, the MIC with Staphylococcus aureus [1] and in the assay on Staphylococcus aureus [2] was greater than 64 µg/mL each time.
`CC1(C)c2nc3ccccc3nc2C[C@]2(C)[C@H]3C[C@@H](O)[C@@H]4[C@@H]([C@@](C)(O)CCC(=O)NC5CCCCC5)CC[C@@]4(C)[C@]3(C)CC[C@@H]12`: the minimum inhibitory concentration (MIC) in the assay on Staphylococcus aureus [1] and with Staphylococcus aureus [2] was greater than 64 µg/mL in each case.
`C[C@H]1COc2c(N3CCN(C)CC3)c(F)cc3c(=O)c(C(=O)O)cn1c23` [LEVOFLOXACIN ANHYDROUS]: the minimal inhibitory concentration (MIC) amounted to 4 µg/mL (≈ 11.1 µM) in the assay on Staphylococcus aureus [3]; 32 µg/mL (≈ 88.6 µM) with Staphylococcus aureus [4]; 0.125 µg/mL (≈ 0.346 µM) in the assay on Staphylococcus aureus [5]; 0.125 µg/mL (≈ 0.346 µM) in the assay on Staphylococcus aureus [6]; 16 µg/mL (≈ 44.3 µM) in the assay on Staphylococcus aureus [7]; 64 µg/mL (≈ 177 µM) in the assay with Staphylococcus aureus [8]. Further, the minimal inhibitory concentration (MIC) with Staphylococcus aureus [9] was 0.125 µg/mL (≈ 0.346 µM).
For the compound `CC1(C)c2nc3ccccc3nc2C[C@]2(C)[C@H]3C[C@@H](O)[C@@H]4[C@@H]([C@@](C)(O)CCCO)CC[C@@]4(C)[C@]3(C)CC[C@@H]12`, the MIC in the assay on Staphylococcus aureus [1] is 4 µg/mL (≈ 7.68 µM); with Staphylococcus aureus [2], 8 µg/mL (≈ 15.4 µM).
For `CC1(C)c2oncc2C[C@]2(C)[C@H]3C[C@@H](O)[C@@H]4[C@@H]([C@@](C)(O)CCCO)CC[C@@]4(C)[C@]3(C)CC[C@@H]12`, in that order: greater than 64 µg/mL and greater than 64 µg/mL.
For `CC1(C)c2nc3ccccc3nc2C[C@]2(C)[C@H]3C[C@@H](O)[C@@H]4[C@@H]([C@@](C)(O)CCC(=O)Nc5ccc6nccnc6c5)CC[C@@]4(C)[C@]3(C)CC[C@@H]12`, in that order: greater than 64 µg/mL and greater than 64 µg/mL.
On to `CC1(C)c2nc3ccccc3cc2C[C@]2(C)[C@H]3C[C@@H](O)[C@@H]4[C@@H]([C@@](C)(O)CCCO)CC[C@@]4(C)[C@]3(C)CC[C@@H]12`, for which the minimum inhibitory concentration (MIC) is 2 µg/mL (≈ 3.85 µM) with Staphylococcus aureus [1] and greater than 64 µg/mL in the assay on Staphylococcus aureus [2].
For `CC1(C)c2nc3ccccc3nc2C[C@]2(C)[C@H]3C[C@@H](O)[C@@H]4[C@@H]([C@@](C)(O)CCC(=O)Nc5ccc6ncsc6c5)CC[C@@]4(C)[C@]3(C)CC[C@@H]12`, in that order: greater than 64 µg/mL and greater than 64 µg/mL.
As for `CC1(C)c2nc(N)ncc2C[C@]2(C)[C@H]3C[C@@H](O)[C@@H]4[C@@H]([C@@](C)(O)CCCO)CC[C@@]4(C)[C@]3(C)CC[C@@H]12`, the MIC in the assay on Staphylococcus aureus [1] came out at 16 µg/mL (≈ 32.9 µM); with Staphylococcus aureus [2], 32 µg/mL (≈ 65.9 µM).
For `COc1ccc(NC(=O)CC[C@](C)(O)[C@H]2CC[C@]3(C)[C@@H]2[C@H](O)C[C@@H]2[C@@]4(C)Cc5nc6ccccc6nc5C(C)(C)[C@@H]4CC[C@]23C)cc1`, in that order: greater than 64 µg/mL and greater than 64 µg/mL.
For `Cc1nc2c(o1)C(C)(C)[C@@H]1CC[C@]3(C)[C@H](C[C@@H](O)[C@@H]4[C@@H]([C@@](C)(O)CCCO)CC[C@]43C)[C@@]1(C)C2`, in that order: greater than 64 µg/mL and greater than 64 µg/mL.
Turning to `CC1(C)c2nc3ccccc3nc2C[C@]2(C)[C@H]3C[C@@H](O)[C@@H]4[C@@H]([C@@](C)(O)CCC(=O)NC5CCCC5)CC[C@@]4(C)[C@]3(C)CC[C@@H]12`, the minimal inhibitory concentration (MIC) in the assay on Staphylococcus aureus [1] and with Staphylococcus aureus [2] was greater than 64 µg/mL in each case.
Turning to `CC1(C)c2nc3ccccc3nc2C[C@]2(C)[C@H]3C[C@@H](O)[C@@H]4[C@@H]([C@@](C)(O)CCC(=O)Nc5ncc[nH]5)CC[C@@]4(C)[C@]3(C)CC[C@@H]12`, the MIC came out at 2 µg/mL (≈ 3.33 µM) in the assay on Staphylococcus aureus [3]; 4 µg/mL (≈ 6.67 µM) with Staphylococcus aureus [4]; 2 µg/mL (≈ 3.33 µM) with Staphylococcus aureus [5]; 1 µg/mL (≈ 1.67 µM) in the assay with Staphylococcus aureus [6]; 8 µg/mL (≈ 13.3 µM) in the assay on Staphylococcus aureus [7]; 2 µg/mL (≈ 3.33 µM) with Staphylococcus aureus [8]. Further, the MIC with Staphylococcus aureus [1] turned out to be 2 µg/mL (≈ 3.33 µM); in the assay on Staphylococcus aureus [9], 8 µg/mL (≈ 13.3 µM); with Staphylococcus aureus [2], 2 µg/mL (≈ 3.33 µM).
`CC1(C)c2[nH]c3ccccc3c2C[C@]2(C)[C@H]3C[C@@H](O)[C@@H]4[C@@H]([C@@](C)(O)CCCO)CC[C@@]4(C)[C@]3(C)CC[C@@H]12`: the MIC with Staphylococcus aureus [1] was found to be 4 µg/mL (≈ 7.88 µM); with Staphylococcus aureus [2] it was 32 µg/mL (≈ 63 µM).
As to `CNC(=O)CC[C@](C)(O)[C@H]1CC[C@]2(C)[C@@H]1[C@H](O)C[C@@H]1[C@@]3(C)Cc4nc5ccccc5nc4C(C)(C)[C@@H]3CC[C@]12C`, the MIC in the assay on Staphylococcus aureus [3] came out at 8 µg/mL (≈ 14.6 µM); in the assay on Staphylococcus aureus [4] it was 8 µg/mL (≈ 14.6 µM); in the assay with Staphylococcus aureus [5], 4 µg/mL (≈ 7.3 µM); in the assay on Staphylococcus aureus [6], 4 µg/mL (≈ 7.3 µM); with Staphylococcus aureus [7], 4 µg/mL (≈ 7.3 µM); in the assay with Staphylococcus aureus [8], 16 µg/mL (≈ 29.2 µM). Moreover, the results for the minimum inhibitory concentration (MIC) in the assay on Staphylococcus aureus [1], with Staphylococcus aureus [9] and with Staphylococcus aureus [2] were 4 µg/mL (≈ 7.3 µM), 8 µg/mL (≈ 14.6 µM) and 4 µg/mL (≈ 7.3 µM), respectively.
